This assay has as its target T1, Dual specificity protein kinase TTK (Homo sapiens, UniProt P33981).
T1 sequence (P33981 whole entry): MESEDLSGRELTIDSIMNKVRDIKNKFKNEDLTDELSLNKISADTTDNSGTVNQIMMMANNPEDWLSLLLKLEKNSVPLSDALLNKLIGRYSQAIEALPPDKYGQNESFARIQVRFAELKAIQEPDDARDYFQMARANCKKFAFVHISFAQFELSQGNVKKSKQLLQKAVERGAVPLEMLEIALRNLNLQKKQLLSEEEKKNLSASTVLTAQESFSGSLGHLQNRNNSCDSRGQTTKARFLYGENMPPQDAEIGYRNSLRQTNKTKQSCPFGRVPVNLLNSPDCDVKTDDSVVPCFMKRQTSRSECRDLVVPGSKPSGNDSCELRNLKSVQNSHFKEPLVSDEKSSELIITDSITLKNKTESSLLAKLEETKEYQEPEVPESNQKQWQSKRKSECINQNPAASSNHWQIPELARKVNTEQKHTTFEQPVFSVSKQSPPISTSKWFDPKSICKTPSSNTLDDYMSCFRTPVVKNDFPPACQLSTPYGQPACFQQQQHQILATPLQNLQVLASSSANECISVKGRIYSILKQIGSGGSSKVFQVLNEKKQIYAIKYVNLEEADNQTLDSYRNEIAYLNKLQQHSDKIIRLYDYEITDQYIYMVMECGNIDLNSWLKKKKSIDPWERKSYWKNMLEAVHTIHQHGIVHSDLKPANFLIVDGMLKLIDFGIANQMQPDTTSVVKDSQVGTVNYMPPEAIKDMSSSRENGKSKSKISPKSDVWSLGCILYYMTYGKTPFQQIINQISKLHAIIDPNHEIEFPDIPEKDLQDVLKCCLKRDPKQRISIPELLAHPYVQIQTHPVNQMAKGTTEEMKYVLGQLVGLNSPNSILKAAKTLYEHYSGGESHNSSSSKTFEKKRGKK
Kind of assay: The reaction was carried out for 60 min at room temperature and stopped by the addition of buffer (10 μl) containing 20 mM EDTA, 0.05% (v/v) Brij-35, in 0.1M HEPES-buffered saline (Free acid, Sigma, UK). […] The % inhibition of the compounds is calculated relative to the means of selected control wells. […] The % inhibitions at each concentration are then fitted to a 4 parameter logistic fit.

As usually defined, the IC50 is the point on the concentration scale where inhibition reaches its midpoint. With `CCOc1cc(-c2nncn2C)ccc1Nc1ncc2cc(C)nc(N3CCC(C)(OC)CC3)c2n1`, the IC50 is 3 nM.

For `CCOc1cc(-c2nncn2C)ccc1Nc1ncc2cc(C)nc(N3CC(F)(F)C3)c2n1`, the IC50 was 6 nM.

In the case of `CCOc1cc(-c2nncn2C)ccc1Nc1ncc2cc(C)nc(N3CCC(C)(C#N)C3)c2n1` (stereo not drawn), the half-maximal inhibitory concentration (IC50) was 3 nM.

For the molecule `CCOc1cc(-c2nncn2C)ccc1Nc1ncc2cc(C)nc(N3CC(O)(CC)C3)c2n1`, the IC50 is 4 nM.

Turning to `CCOc1cc(-c2nncn2C)ccc1Nc1ncc2cc(C)nc(N3CC4(CCCC4)C3)c2n1`, the IC50 was 2 nM.

Regarding `COc1cc(-c2cnc(C)n2C)ccc1Nc1ncc2cc(C)nc(NCC3(C)CCOC3)c2n1` (stereo not drawn), the 50% inhibitory concentration (IC50) was 2 nM.

For `CCOc1cc(-c2nncn2C)ccc1Nc1ncc2cc(C)nc(N3CCC(C#N)C3)c2n1` (stereo not drawn), the IC50 is 3 nM.

Consider `COc1cc(-c2cnc(C)n2C)ccc1Nc1ncc2cc(C)nc(N3CC(C)(C#N)C3)c2n1`, for which the IC50 is 2 nM.

Values taken from ChEMBL document CHEMBL5727281, “N2-phenyl-pyrido[3,4-D]pyrimidine-2, 8-diamine derivatives and their use as Mps1 inhibitors” (2019).
